These results are taken from US20240294522A1 (Lead Discovery Center GmbH, priority 2021, published 2024).

In one experiment the target is T1, GRK5 (Homo sapiens, UniProt P34947).
T1 construct: purchased Thermo Scientific
The experiment is described as follows: Lance Kinase Activity Assay, GRK5. The note with it: biochemical Lance kinase activity assay; class symbols A-F; read-out: GRK5 LANCE Assay (IC-50). The method, boiled down:
(§1)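 IC50s from sigmoidal dose-response over 0.0025-10 μM compound, with phosphorylated ULight substrate detected by Eu anti-phospho antibody FRET after EDTA quench.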

A further experiment addresses T2, GRK2 (Homo sapiens, UniProt P25098).
T2 construct: purchased Thermo Scientific
T2 sequence (P25098 1-689): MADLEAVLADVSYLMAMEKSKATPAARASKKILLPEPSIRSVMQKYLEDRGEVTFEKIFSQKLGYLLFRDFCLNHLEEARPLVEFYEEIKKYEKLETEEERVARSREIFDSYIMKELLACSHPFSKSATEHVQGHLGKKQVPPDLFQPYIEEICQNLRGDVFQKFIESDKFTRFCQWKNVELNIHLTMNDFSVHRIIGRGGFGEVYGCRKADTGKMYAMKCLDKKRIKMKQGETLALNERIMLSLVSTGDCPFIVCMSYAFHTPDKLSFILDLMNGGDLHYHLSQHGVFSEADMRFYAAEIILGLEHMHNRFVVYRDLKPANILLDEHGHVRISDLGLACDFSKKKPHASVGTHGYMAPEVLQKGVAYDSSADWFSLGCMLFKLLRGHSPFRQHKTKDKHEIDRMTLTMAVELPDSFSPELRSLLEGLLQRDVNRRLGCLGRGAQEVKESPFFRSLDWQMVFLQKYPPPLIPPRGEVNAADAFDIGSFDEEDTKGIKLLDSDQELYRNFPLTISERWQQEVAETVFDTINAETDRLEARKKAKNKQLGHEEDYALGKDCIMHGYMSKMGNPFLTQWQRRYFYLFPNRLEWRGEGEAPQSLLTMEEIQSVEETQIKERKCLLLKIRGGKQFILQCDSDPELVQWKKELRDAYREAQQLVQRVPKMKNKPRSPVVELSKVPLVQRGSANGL
Briefly: Lance Kinase Activity Assay, GRK2. The note with it: biochemical Lance kinase activity assay; class symbols A-F; read-out: GRK2 LANCE Assay (IC-50). The method, boiled down: as §1

Bounds are passed on as bounds.

T1 sequence (P34947 whole entry): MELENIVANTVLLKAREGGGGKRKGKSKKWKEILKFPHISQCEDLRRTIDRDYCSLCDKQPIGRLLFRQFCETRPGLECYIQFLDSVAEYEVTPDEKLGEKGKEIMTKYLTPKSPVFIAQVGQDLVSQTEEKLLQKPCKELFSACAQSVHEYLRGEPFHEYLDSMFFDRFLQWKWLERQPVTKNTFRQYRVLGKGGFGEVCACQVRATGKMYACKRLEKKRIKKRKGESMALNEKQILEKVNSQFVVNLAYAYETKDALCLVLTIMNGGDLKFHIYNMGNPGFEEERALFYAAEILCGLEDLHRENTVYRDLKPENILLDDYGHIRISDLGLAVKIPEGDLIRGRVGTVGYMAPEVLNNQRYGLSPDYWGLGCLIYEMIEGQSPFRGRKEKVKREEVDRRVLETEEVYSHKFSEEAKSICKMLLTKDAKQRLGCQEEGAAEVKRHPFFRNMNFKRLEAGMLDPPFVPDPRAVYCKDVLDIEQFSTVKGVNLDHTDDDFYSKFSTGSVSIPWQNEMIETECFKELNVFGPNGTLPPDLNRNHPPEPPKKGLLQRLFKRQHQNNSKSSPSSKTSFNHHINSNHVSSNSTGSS

Take `C[C@@H](NC(=O)/C(C#N)=C/c1c[nH]c2nccc(Cl)c12)c1ccc(F)cc1` [Example 78, (R,E)-3-(4-chloro-1H-pyrrolo[2,3-b]pyridin-3-yl)-2-cyano-N-(1-(4-fluorophenyl)ethyl)acrylamide]: the figures for the IC50 at GRK5 and on GRK2 were 100 to 500 nM and 500 to 1000 nM, respectively.
In the same order, the values of `C[C@@H](NC(=O)/C(C#N)=C/c1c[nH]c2ncc(Br)cc12)c1ccc(F)cc1` [Example 79, (R,E)-3-(5-bromo-1H-pyrrolo[2,3-b]pyridin-3-yl)-2-cyano-N-(1-(4-fluorophenyl)ethyl)acrylamide] are 100 to 500 nM and 1000 to 10000 nM.
In the same order, the values of `COc1ccc([C@@H](C)NC(=O)/C(C#N)=C/c2c[nH]c3ncc(Br)cc23)cc1OC` [Example 80, (R,E)-3-(5-bromo-1H-pyrrolo[2,3-b]pyridin-3-yl)-2-cyano-N-(1-(3,4-dimethoxyphenyl)ethyl)acrylamide] are 50 to 100 nM and above 10000 nM.
In the same order, the values of `COc1ccc([C@@H](C)NC(=O)/C(C#N)=C/c2c[nH]c3ncc(O)cc23)cc1OC` [Example 81, (R,E)-2-cyano-N-(1-(3,4-dimethoxyphenyl)ethyl)-3-(5-hydroxy-1H-pyrrolo[2,3-b]pyridin-3-yl)acrylamide] are at most 50 nM and 1000 to 10000 nM.
Regarding `COc1ccc([C@@H](C)NC(=O)/C(C#N)=C/c2c[nH]c3ncc(C(=O)N4CCOCC4)cc23)cc1OC` [Example 82], the IC50 is 100 to 500 nM at GRK5 and above 10000 nM at GRK2.
In the same order, the values of `COc1ccc([C@@H](C)NC(=O)/C(C#N)=C/c2c[nH]c3ncc(C(=O)N4CCN(C)CC4)cc23)cc1OC` [Example 83, (R,E)-2-cyano-N-(1-(3,4-dimethoxyphenyl)ethyl)-3-(5-(4-methylpiperazine-1-carbonyl)-1H-pyrrolo[2,3-b]pyridin-3-yl)acrylamide] are 100 to 500 nM and above 10000 nM.
As for `COc1ccc([C@@H](C)NC(=O)/C(C#N)=C/c2c[nH]c3ncc(N4CCOCC4)cc23)cc1OC` [Example 84, (R,E)-2-cyano-N-(1-(3,4-dimethoxyphenyl)ethyl)-3-(5-morpholino-1H-pyrrolo[2,3-b]pyridin-3-yl)acrylamide], the results for the IC50 on GRK5 and on GRK2 were at most 50 nM and 1000 to 10000 nM, respectively.
For `COc1ccc([C@@H](C)NC(=O)/C(C#N)=C/c2c[nH]c3ncc(N4CCN(C)CC4)cc23)cc1OC` [Example 85] the same measures were at most 50 nM and above 10000 nM.
`COc1ccc([C@@H](C)NC(=O)/C(C#N)=C/c2c[nH]c3ncc(C#N)cc23)cc1OC` [Example 86, (R,E)-2-cyano-3-(5-cyano-1H-pyrrolo[2,3-b]pyridin-3-yl)-N-(1-(3,4-dimethoxyphenyl)ethyl)acrylamide]: the IC50 at GRK5 was 100 to 500 nM; on GRK2, above 10000 nM.
In the same order, the values of `COc1ccc([C@@H](C)NC(=O)/C(C#N)=C/c2c[nH]c3ncc(C)cc23)cc1OC` [Example 87, (R,E)-2-cyano-N-(1-(3,4-dimethoxyphenyl)ethyl)-3-(5-methyl-1H-pyrrolo[2,3-b]pyridin-3-yl)acrylamide] are at most 50 nM and 500 to 1000 nM.
For `COc1ccc([C@@H](C)NC(=O)/C(C#N)=C/c2c[nH]c3ncc(Nc4ccccc4)cc23)cc1OC` [Example 88, (R,E)-2-cyano-N-(1-(3,4-dimethoxyphenyl)ethyl)-3-(5-(phenylamino)-1H-pyrrolo[2,3-b]pyridin-3-yl)acrylamide] the same measures were at most 50 nM and 1000 to 10000 nM.
On to `COc1ccc([C@@H](C)NC(=O)/C(C#N)=C/c2c[nH]c3nc(Br)ccc23)cc1OC` [Example 90, (R,E)-3-(6-bromo-1H-pyrrolo[2,3-b]pyridin-3-yl)-2-cyano-N-(1-(3,4-dimethoxyphenyl)ethyl)acrylamide], for which the IC50 was 100 to 500 nM at GRK5 and above 10000 nM at GRK2.
In the same order, the values of `C[C@@H](NC(=O)/C(C#N)=C/c1c[nH]c2ncc(-c3cnn(C)c3)cc12)c1ccccc1` [Example 91, (R,E)-2-cyano-3-(5-(1-methyl-1H-pyrazol-4-yl)-1H-pyrrolo[2,3-b]pyridin-3-yl)-N-(1-phenylethyl)acrylamide] are at most 50 nM and 100 to 500 nM.
In the same order, the values of `C[C@@H](NC(=O)/C(C#N)=C/c1c[nH]c2ncc(-c3cnn(C)c3)cc12)c1ccc(F)cc1` [Example 93, (R,E)-2-cyano-N-(1-(4-fluorophenyl)ethyl)-3-(5-(1-methyl-1H-pyrazol-4-yl)-1H-pyrrolo[2,3-b]pyridin-3-yl)acrylamide] are at most 50 nM and 100 to 500 nM.
In the same order, the values of `C[C@@H](NC(=O)/C(C#N)=C/c1c[nH]c2ncc(-c3cnn(C)c3)cc12)c1ccc(Cl)cc1` [Example 95, (R,E)-N-(1-(4-chlorophenyl)ethyl)-2-cyano-3-(5-(1-methyl-1H-pyrazol-4-yl)-1H-pyrrolo[2,3-b]pyridin-3-yl)acrylamide] are 50 to 100 nM and 1000 to 10000 nM.
With `C[C@@H](NC(=O)/C(C#N)=C/c1c[nH]c2ncc(-c3cnn(C)c3)cc12)c1cccc(Cl)c1` [Example 96, (R,E)-N-(1-(3-chlorophenyl)ethyl)-2-cyano-3-(5-(1-methyl-1H-pyrazol-4-yl)-1H-pyrrolo[2,3-b]pyridin-3-yl)acrylamide], the IC50 at GRK5 was at most 50 nM; at GRK2, 100 to 500 nM.
With `Cc1c(-c2cnn(C)c2)cnc2[nH]cc(/C=C(\C#N)C(=O)N[C@H](C)c3ccccc3)c12` [Example 97, (R,E)-2-cyano-3-(4-methyl-5-(1-methyl-1H-pyrazol-4-yl)-1H-pyrrolo[2,3-b]pyridin-3-yl)-N-(1-phenylethyl)acrylamide], the IC50 on GRK5 and at GRK2 was 500 to 1000 nM throughout.
On to `Cc1c(-c2cnn(C)c2)cnc2[nH]cc(/C=C(\C#N)C(=O)N[C@H](C)c3ccc(F)cc3)c12` [Example 98, (R,E)-2-cyano-N-(1-(4-fluorophenyl)ethyl)-3-(4-methyl-5-(1-methyl-1H-pyrazol-4-yl)-1H-pyrrolo[2,3-b]pyridin-3-yl)acrylamide], for which the IC50 at GRK5 and at GRK2 was 500 to 1000 nM throughout.
Turning to `COc1ccc([C@@H](C)NC(=O)/C(C#N)=C/c2c[nH]c3ncc(-c4cnn(C)c4)c(C)c23)cc1OC` [Example 99, (R,E)-2-cyano-N-(1-(3,4-dimethoxyphenyl)ethyl)-3-(4-methyl-5-(1-methyl-1H-pyrazol-4-yl)-1H-pyrrolo[2,3-b]pyridin-3-yl)acrylamide], the figures for the IC50 on GRK5 and on GRK2 were 100 to 500 nM and above 10000 nM, respectively.
In the same order, the values of `Cc1c(-c2cnn(C)c2)cnc2[nH]cc(/C=C(\C#N)C(=O)N[C@H](C)c3ccc(Cl)cc3)c12` [Example 100, (R,E)-N-(1-(4-chlorophenyl)ethyl)-2-cyano-3-(4-methyl-5-(1-methyl-1H-pyrazol-4-yl)-1H-pyrrolo[2,3-b]pyridin-3-yl)acrylamide] are 500 to 1000 nM and 1000 to 10000 nM.
For `COc1ccc([C@@H](C)NC(=O)/C(C#N)=C/c2c[nH]c3ncc(OCc4cc(C)nn4C)cc23)cc1OC` [Example 101, (R,E)-2-cyano-N-(1-(3,4-dimethoxyphenyl)ethyl)-3-(5-((1,3-dimethyl-1H-pyrazol-5-yl)methoxy)-1H-pyrrolo[2,3-b]pyridin-3-yl)acrylamide] the same measures were 50 to 100 nM and above 10000 nM.
